Active and inactive are the calls of the source. The calls are words filed in the database; no cut-off is given here.
Key:
[1] = molecular target: Serine/threonine-protein kinase 4 (Homo sapiens) (UniProt Q13043); assay: STK4 (MST1) SelectScreen Kinase panel (LifeTechnologies); details: Compound concentration 1.0 uM
[2] = molecular target: Serine/threonine-protein kinase D1 (Homo sapiens) (UniProt Q15139); assay: PRKD1 (PKC mu) SelectScreen Kinase panel (LifeTechnologies); details: Compound concentration 1.0 uM
[3] = molecular target: Cyclin-dependent kinase 1/cyclin B (Homo sapiens) (UniProt P06493+P14635+Q8WWL7+O95067); assay: CDK1/cyclin B SelectScreen Kinase panel (LifeTechnologies); format: protein-complex assay; details: Compound concentration 1.0 uM
[4] = molecular target: Protein kinase C delta type (Homo sapiens) (UniProt Q05655); assay: PRKCD (PKC delta) SelectScreen Kinase panel (LifeTechnologies); details: Compound concentration 1.0 uM
[5] = molecular target: 5-hydroxytryptamine receptor 6 (Homo sapiens) (UniProt P50406); details: Compound concentration 10.0 uM
[6] = molecular target: 5-hydroxytryptamine receptor 2C (Homo sapiens) (UniProt P28335); details: Compound concentration 10.0 uM
[7] = molecular target: cAMP-dependent protein kinase catalytic subunit PRKX (Homo sapiens) (UniProt P51817); assay: PRKX SelectScreen Kinase panel (LifeTechnologies); details: Compound concentration 1.0 uM
[8] = molecular target: Serine/threonine-protein kinase DCLK2 (Homo sapiens) (UniProt Q8N568); assay: DCAMKL2 (DCK2) SelectScreen Kinase panel (LifeTechnologies); details: Compound concentration 1.0 uM
[9] = molecular target: Sodium-dependent serotonin transporter (Homo sapiens) (UniProt P31645); details: Compound concentration 10.0 uM
[10] = molecular target: Mitogen-activated protein kinase 3 (Homo sapiens) (UniProt P27361); assay: MAPK3 (ERK1) SelectScreen Kinase panel (LifeTechnologies); details: Compound concentration 1.0 uM
Sequence of Mitogen-activated protein kinase 3 (Homo sapiens) (P27361 whole entry): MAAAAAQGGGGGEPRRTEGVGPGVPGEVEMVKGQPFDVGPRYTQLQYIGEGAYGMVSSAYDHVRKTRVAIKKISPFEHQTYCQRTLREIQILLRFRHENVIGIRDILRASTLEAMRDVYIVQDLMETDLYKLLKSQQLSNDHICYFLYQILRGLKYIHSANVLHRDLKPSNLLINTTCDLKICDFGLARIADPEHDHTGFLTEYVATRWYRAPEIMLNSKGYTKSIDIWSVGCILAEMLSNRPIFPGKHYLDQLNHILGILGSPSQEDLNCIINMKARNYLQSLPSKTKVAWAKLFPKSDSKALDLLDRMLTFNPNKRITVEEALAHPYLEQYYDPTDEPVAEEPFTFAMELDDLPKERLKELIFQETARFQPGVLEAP

[11] = molecular target: Aurora kinase A (Homo sapiens) (UniProt O14965); assay: AURKA (Aurora A) SelectScreen Kinase panel (LifeTechnologies); details: Compound concentration 1.0 uM
[12] = molecular target: Serine/threonine-protein kinase N1 (Homo sapiens) (UniProt Q16512); assay: PKN1 (PRK1) SelectScreen Kinase panel (LifeTechnologies); details: Compound concentration 1.0 uM
[13] = molecular target: Insulin-like growth factor 1 receptor (Homo sapiens) (UniProt P08069); assay: IGF1R SelectScreen Kinase panel (LifeTechnologies); details: Compound concentration 1.0 uM
[14] = molecular target: Epidermal growth factor receptor (Homo sapiens) (UniProt P00533); assay: EGFR (ErbB1) SelectScreen Kinase panel (LifeTechnologies); details: Compound concentration 1.0 uM
[15] = molecular target: D(1A) dopamine receptor (Homo sapiens) (UniProt P21728); details: Compound concentration 10.0 uM
Sequence of D(1A) dopamine receptor (Homo sapiens) (P21728 whole entry): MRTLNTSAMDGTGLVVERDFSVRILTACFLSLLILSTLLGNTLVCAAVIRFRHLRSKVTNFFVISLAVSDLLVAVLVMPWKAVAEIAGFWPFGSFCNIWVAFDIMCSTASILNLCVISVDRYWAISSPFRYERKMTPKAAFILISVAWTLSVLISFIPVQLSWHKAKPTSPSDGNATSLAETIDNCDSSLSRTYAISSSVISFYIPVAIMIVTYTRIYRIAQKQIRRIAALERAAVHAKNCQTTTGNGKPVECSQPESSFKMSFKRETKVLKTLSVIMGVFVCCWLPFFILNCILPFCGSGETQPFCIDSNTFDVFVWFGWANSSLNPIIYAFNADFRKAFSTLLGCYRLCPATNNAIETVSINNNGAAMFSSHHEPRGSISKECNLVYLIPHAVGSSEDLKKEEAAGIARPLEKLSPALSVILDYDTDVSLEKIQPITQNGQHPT

[16] = molecular target: Tyrosine-protein kinase ITK/TSK (Homo sapiens) (UniProt Q08881); assay: ITK SelectScreen Kinase panel (LifeTechnologies); details: Compound concentration 1.0 uM
Histamine H2 receptor = Histamine H2 receptor (Homo sapiens, UniProt P25021); assay: GPCRScan assay: inhibition of H2; set-up: radioligand conc. used [nm] 0.02 – 0.05, parental cells Stable HEK
Sequence of Histamine H2 receptor (P25021 whole entry): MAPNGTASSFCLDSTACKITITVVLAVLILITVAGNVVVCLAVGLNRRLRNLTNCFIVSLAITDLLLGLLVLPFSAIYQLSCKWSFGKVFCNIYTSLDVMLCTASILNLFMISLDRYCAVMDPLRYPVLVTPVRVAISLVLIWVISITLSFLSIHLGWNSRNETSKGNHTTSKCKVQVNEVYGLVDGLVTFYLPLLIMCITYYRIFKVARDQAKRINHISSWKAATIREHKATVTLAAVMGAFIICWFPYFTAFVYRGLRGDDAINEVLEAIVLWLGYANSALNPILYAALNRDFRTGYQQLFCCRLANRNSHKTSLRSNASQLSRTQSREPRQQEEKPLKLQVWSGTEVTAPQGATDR

[17] = molecular target: Muscarinic acetylcholine receptor M3 (Homo sapiens) (UniProt P20309); details: Compound concentration 10.0 uM
[18] = molecular target: 5-hydroxytryptamine receptor 5A (Homo sapiens) (UniProt P47898); details: Compound concentration 10.0 uM
[19] = molecular target: cGMP-dependent protein kinase 1 (Homo sapiens) (UniProt Q13976); assay: PRKG1 SelectScreen Kinase panel (LifeTechnologies); details: Compound concentration 1.0 uM
Sequence of cGMP-dependent protein kinase 1 (Homo sapiens) (Q13976 whole entry): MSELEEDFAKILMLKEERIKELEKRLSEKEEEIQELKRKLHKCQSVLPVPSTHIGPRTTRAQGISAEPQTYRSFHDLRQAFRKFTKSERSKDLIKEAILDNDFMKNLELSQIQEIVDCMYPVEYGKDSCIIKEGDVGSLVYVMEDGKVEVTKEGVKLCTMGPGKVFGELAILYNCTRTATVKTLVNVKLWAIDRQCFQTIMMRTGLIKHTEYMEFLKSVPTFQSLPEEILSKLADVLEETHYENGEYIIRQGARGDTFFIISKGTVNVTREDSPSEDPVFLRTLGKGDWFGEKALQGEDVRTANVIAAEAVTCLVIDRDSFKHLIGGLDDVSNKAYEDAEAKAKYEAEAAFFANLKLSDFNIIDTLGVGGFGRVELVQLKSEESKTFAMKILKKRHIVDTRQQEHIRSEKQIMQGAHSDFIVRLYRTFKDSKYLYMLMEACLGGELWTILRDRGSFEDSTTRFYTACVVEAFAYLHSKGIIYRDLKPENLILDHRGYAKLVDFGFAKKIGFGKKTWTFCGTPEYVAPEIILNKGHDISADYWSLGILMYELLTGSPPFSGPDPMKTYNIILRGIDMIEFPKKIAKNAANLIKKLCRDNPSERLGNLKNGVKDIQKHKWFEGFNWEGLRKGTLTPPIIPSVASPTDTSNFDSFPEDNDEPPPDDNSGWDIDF

[20] = molecular target: Cyclin-dependent kinase 2/cyclin A (Homo sapiens) (UniProt P24941+P20248+P78396); assay: CDK2/cyclin A SelectScreen Kinase panel (LifeTechnologies); format: protein-complex assay; details: Compound concentration 1.0 uM
[21] = molecular target: Serine/threonine-protein kinase Sgk1 (Homo sapiens) (UniProt O00141); assay: SGK (SGK1) SelectScreen Kinase panel (LifeTechnologies); details: Compound concentration 1.0 uM
[22] = molecular target: Mitogen-activated protein kinase 1 (Homo sapiens) (UniProt P28482); assay: MAPK1 (ERK2) SelectScreen Kinase panel (LifeTechnologies); details: Compound concentration 1.0 uM
[23] = molecular target: Ribosomal protein S6 kinase alpha-2 (Homo sapiens) (UniProt Q15349); assay: RPS6KA2 (RSK3) SelectScreen Kinase panel (LifeTechnologies); details: Compound concentration 1.0 uM
[24] = GPCRScan assay: inhibition of GABA/PBR; set-up: species or system Rattus norvegicus; radioligand conc. used [nm] 0.3 – 2.0, parental cells brain tissue
[25] = molecular target: Alpha-1A adrenergic receptor (Homo sapiens) (UniProt P35348); details: Compound concentration 10.0 uM
[26] = molecular target: Proto-oncogene tyrosine-protein kinase receptor Ret (Homo sapiens) (UniProt P07949); assay: RET SelectScreen Kinase panel (LifeTechnologies); details: Compound concentration 1.0 uM
[27] = molecular target: Serine/threonine-protein kinase PAK 4 (Homo sapiens) (UniProt O96013); assay: PAK4 SelectScreen Kinase panel (LifeTechnologies); details: Compound concentration 1.0 uM
[28] = molecular target: Angiopoietin-1 receptor (Homo sapiens) (UniProt Q02763); assay: TEK (Tie2) SelectScreen Kinase panel (LifeTechnologies); details: Compound concentration 1.0 uM
[29] = molecular target: Beta-1 adrenergic receptor (Homo sapiens) (UniProt P08588); details: Compound concentration 10.0 uM
MCF7 = assay: CellTiter-Glo luminescent cell viability assay (CTG) with MCF-7 cells; format: functional, cell-based; details: Homo sapiens
[30] = molecular target: Ribosomal protein S6 kinase alpha-5 (Homo sapiens) (UniProt O75582); assay: RPS6KA5 (MSK1) SelectScreen Kinase panel (LifeTechnologies); details: Compound concentration 1.0 uM
[31] = molecular target: D(4) dopamine receptor (Homo sapiens) (UniProt P21917); details: Compound concentration 10.0 uM
[32] = molecular target: G protein-coupled receptor kinase 4 (Homo sapiens) (UniProt P32298); assay: GRK4 SelectScreen Kinase panel (LifeTechnologies); details: Compound concentration 1.0 uM
[33] = molecular target: Serine/threonine-protein kinase Sgk3 (Homo sapiens) (UniProt Q96BR1); assay: SGKL (SGK3) SelectScreen Kinase panel (LifeTechnologies); details: Compound concentration 1.0 uM
[34] = molecular target: Proto-oncogene tyrosine-protein kinase Src (Homo sapiens) (UniProt P12931); assay: SRC SelectScreen Kinase panel (LifeTechnologies); details: Compound concentration 1.0 uM
[35] = molecular target: Ephrin type-B receptor 4 (Homo sapiens) (UniProt P54760); assay: EPHB4 SelectScreen Kinase panel (LifeTechnologies); details: Compound concentration 1.0 uM
Sequence of Ephrin type-B receptor 4 (Homo sapiens) (P54760 whole entry, looked up): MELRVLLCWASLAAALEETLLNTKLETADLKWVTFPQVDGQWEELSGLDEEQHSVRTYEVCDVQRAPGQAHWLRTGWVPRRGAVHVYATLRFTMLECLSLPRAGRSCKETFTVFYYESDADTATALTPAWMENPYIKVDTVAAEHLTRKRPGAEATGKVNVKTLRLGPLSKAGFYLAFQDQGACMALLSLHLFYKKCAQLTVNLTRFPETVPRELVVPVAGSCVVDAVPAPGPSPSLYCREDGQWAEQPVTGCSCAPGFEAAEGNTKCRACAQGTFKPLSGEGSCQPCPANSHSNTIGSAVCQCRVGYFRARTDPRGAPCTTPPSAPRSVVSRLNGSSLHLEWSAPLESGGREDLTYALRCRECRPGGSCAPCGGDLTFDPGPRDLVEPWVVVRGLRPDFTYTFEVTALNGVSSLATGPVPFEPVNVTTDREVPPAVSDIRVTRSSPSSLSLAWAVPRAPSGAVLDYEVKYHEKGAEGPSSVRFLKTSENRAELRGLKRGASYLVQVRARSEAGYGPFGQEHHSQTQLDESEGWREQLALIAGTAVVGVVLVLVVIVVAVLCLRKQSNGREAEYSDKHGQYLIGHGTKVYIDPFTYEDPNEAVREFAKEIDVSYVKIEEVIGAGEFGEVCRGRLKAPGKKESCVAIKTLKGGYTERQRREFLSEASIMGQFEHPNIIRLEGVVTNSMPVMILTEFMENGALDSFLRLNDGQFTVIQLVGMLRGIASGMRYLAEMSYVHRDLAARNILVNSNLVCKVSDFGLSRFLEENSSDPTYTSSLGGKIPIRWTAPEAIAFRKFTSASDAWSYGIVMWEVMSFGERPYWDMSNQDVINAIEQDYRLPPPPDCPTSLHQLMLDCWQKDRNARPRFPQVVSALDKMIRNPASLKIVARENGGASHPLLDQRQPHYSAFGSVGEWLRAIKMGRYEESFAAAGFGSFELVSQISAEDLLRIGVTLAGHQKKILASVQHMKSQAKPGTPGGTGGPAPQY

[36] = molecular target: Serine/threonine-protein kinase mTOR (Homo sapiens) (UniProt P42345); assay: FRAP1 (mTOR) SelectScreen Kinase panel (LifeTechnologies); details: Compound concentration 1.0 uM
[37] = molecular target: Calcium/calmodulin-dependent protein kinase type 1D (Homo sapiens) (UniProt Q8IU85); assay: CAMK1D (CaMKI delta) SelectScreen Kinase panel (LifeTechnologies); details: Compound concentration 1.0 uM
[38] = molecular target: Serine/threonine-protein kinase pim-1 (Homo sapiens) (UniProt P11309); assay: PIM1 SelectScreen Kinase panel (LifeTechnologies); details: Compound concentration 1.0 uM
[39] = molecular target: Serine/threonine-protein kinase Nek1 (Homo sapiens) (UniProt Q96PY6); assay: NEK1 SelectScreen Kinase panel (LifeTechnologies); details: Compound concentration 1.0 uM
Sequence of Serine/threonine-protein kinase Nek1 (Homo sapiens) (Q96PY6 whole entry): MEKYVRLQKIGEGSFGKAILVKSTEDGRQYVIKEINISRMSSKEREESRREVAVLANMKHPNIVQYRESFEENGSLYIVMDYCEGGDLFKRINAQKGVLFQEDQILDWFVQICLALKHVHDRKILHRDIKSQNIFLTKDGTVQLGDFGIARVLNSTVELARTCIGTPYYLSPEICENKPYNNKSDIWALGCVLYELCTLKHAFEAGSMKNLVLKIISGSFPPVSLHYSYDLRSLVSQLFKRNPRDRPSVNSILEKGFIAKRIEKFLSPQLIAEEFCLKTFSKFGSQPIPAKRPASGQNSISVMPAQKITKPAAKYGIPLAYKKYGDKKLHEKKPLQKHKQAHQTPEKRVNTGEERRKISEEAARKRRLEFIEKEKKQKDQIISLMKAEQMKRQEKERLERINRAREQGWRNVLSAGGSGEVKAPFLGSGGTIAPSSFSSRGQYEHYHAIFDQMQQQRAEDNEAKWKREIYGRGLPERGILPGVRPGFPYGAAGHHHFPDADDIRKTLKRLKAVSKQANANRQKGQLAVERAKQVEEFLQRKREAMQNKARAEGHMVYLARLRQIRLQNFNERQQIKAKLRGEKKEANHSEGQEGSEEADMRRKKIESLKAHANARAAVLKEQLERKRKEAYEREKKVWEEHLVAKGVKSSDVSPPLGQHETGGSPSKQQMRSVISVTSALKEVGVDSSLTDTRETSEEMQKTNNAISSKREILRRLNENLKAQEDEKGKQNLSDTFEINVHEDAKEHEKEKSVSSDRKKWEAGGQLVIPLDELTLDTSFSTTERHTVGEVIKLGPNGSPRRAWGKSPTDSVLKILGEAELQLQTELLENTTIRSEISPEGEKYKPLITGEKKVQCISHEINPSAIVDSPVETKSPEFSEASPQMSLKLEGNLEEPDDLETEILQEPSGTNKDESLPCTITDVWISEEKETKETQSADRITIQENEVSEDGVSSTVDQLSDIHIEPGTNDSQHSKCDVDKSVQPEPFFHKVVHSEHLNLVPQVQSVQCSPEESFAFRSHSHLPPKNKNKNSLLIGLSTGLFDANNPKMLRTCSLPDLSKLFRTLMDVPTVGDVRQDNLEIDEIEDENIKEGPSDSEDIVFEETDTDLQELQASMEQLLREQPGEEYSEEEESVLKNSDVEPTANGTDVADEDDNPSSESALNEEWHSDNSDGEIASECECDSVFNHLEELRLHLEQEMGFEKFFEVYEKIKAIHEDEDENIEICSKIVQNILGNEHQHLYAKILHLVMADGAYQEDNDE

[40] = molecular target: Protein kinase C theta type (Homo sapiens) (UniProt Q04759); assay: PRKCQ (PKC theta) SelectScreen Kinase panel (LifeTechnologies); details: Compound concentration 1.0 uM
Sequence of Protein kinase C theta type (Homo sapiens) (Q04759 whole entry, looked up): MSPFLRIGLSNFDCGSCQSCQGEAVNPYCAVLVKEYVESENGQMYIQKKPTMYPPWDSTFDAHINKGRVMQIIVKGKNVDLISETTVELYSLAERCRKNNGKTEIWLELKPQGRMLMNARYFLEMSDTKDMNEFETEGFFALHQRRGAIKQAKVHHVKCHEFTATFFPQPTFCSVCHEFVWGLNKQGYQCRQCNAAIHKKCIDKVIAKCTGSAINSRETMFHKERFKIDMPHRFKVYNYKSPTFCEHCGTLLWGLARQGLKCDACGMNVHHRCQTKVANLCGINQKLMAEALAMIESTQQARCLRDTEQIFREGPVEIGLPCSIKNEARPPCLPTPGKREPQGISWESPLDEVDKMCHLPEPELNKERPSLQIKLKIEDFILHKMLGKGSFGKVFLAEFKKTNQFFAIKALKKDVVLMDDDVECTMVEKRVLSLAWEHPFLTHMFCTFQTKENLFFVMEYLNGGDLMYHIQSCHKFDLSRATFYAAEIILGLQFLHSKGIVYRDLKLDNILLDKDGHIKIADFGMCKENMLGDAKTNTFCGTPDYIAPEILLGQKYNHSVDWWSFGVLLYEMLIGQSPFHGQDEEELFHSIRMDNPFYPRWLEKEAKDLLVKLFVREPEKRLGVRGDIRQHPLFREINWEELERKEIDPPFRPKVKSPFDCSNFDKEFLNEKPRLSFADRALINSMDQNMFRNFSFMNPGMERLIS

[41] = molecular target: Alpha-1A adrenergic receptor (Homo sapiens, UniProt P35348); assay: GPCRScan assay: inhibition of Alpha1A; set-up: radioligand conc. used [nm] 0.2 - 1.0, parental cells stable HEK
[42] = molecular target: PAS domain-containing serine/threonine-protein kinase (Homo sapiens) (UniProt Q96RG2); assay: PASK SelectScreen Kinase panel (LifeTechnologies); details: Compound concentration 1.0 uM

C=CC(=O)Nc1ccc2[nH]c(=O)n(C3CCN(Cc4ccc(-c5nc6cc[nH]c(=O)c6cc5-c5ccccc5)cc4)CC3)c2c1 [Borussertib]
inhibition [1]: -1% | inhibition [2]: 10% | inhibition [3]: 3% | inhibition [4]: -8% | inhibition [5]: -3.73% | inhibition [6]: -8.03% | inhibition [7]: 3% | inhibition [8]: -2% | inhibition [9]: 2.16% | inhibition [10]: -3% | inhibition [11]: 15% | inhibition [12]: -4% | inhibition [13]: -4% | inhibition [14]: 2% | inhibition [15]: 19.2% | inhibition [16]: -1% | Ki (Histamine H2 receptor; read-out: Ki): 950 nM | Ki (Histamine H2 receptor; read-out: pKi (converted)): 813 nM | inhibition [17]: 5.83% | inhibition [18]: 19.4% | inhibition [19]: 5% | inhibition [20]: 1% | inhibition [21]: 20% | inhibition [22]: 3% | inhibition [23]: 14% | Ki [24]: 57.3 nM | pKi [24]: 7.24 | inhibition [25]: 72.2% | inhibition [26]: 7% | inhibition [27]: 7% | inhibition [28]: 13% | inhibition [29]: -0.86% | EC50 (MCF7): 280 nM (active) | inhibition [30]: 2% | inhibition [31]: 10% | inhibition [32]: 8% | inhibition [33]: 2% | inhibition [34]: 10% | inhibition [35]: 7% | inhibition [36]: -9% | inhibition [37]: 9% | inhibition [38]: 0% | inhibition [39]: 8% | inhibition [40]: 35% | Ki [41]: 2660 nM | inhibition [42]: 15%

Reference: ChEMBL document CHEMBL4800730 (2021)
